Measured values as given in US9364467B2 (Salix Pharmaceuticals, Ltd, priority 2012, dated 2016).
Like-named read-outs stand apart in the source and are kept apart here.

Experiments:
[1] = system: S. haemolyticus; assay: In vitro activity (MIC) against S. haemolyticus strains; conditions: Staphylococcus haemolyticus
[2] = system: Enterobacteriaceae spp. strains; assay: In vitro activity (MIC) against Enterobacteriaceae spp. strains

COC1/C=C/O[C@@]2(C)Oc3c(C)c(O)c4c(O)c(c5c(c4c3C2=O)NC2C=C(C)C=CN52)NC(=O)/C(C)=C\C=C\C(C)C(O)C(C)C(O)C(C)C(O)C1C (stereo partly drawn) [25-desacetyl rifaximin]
1 µg/mL: MIC ([1]; strain S. haemolyticus 276) | MIC ([1]; strain S. haemolyticus 955)
0.5 µg/mL: MIC ([1]; strain S. haemolyticus 243) | MIC ([1]; strain S. haemolyticus 982)
256 µg/mL: MIC90 [2] | MIC ([2]; Citrobacter freundii, C. freundii 68) | MIC ([2]; Citrobacter freundii, C. freundii 1073) | MIC ([2]; Enterobacter cloacae, E. cloacae 8) | MIC ([2]; Enterobacter cloacae, E. cloacae 348) | MIC ([2]; Enterobacter cloacae, E. cloacae 369) | MIC ([2]; Escherichia coli, E. coli 44) | MIC ([2]; Escherichia coli, E. coli 48) | MIC ([2]; Escherichia coli, E. coli 93) | MIC ([2]; Escherichia coli, E. coli 110) | MIC ([2]; Escherichia coli, E. coli 117) | MIC ([2]; Escherichia coli, E. coli 140) | MIC ([2]; Escherichia coli, E. coli 343) | MIC ([2]; Klebsiella aerogenes, E. aerogenes 1030) | MIC ([2]; Klebsiella pneumoniae, K. pneumoniae 76) | MIC ([2]; Morganella morganii, M. morganii 57) | MIC ([2]; Morganella morganii, M. morganii 67) | MIC ([2]; Morganella morganii, M. morganii 458) | MIC ([2]; Morganella morganii, M. morganii 935) | MIC ([2]; Proteus mirabilis, P. mirabilis 471) | MIC ([2]; Proteus mirabilis, P. mirabilis 480) | MIC ([2]; Proteus mirabilis, P. mirabilis 985) | MIC ([2]; Proteus mirabilis, P. mirabilis 998) | MIC ([2]; Providencia stuartii, P. stuartii 306) | MIC ([2]; S. liquefaciens 55) | MIC ([2]; Serratia marcescens, S. marcescens 63)
128 to 256 µg/mL: Range (MIC) ([2]; Enterobacteriaceae spp. strains)
128 µg/mL: MIC [2] | MIC50 [2] | MIC ([2]; Citrobacter freundii, C. freundii 57) | MIC ([2]; Citrobacter freundii, C. freundii 58) | MIC ([2]; Citrobacter freundii, C. freundii 65) | MIC ([2]; Citrobacter freundii, C. freundii 69) | MIC ([2]; Citrobacter freundii, C. freundii 1070) | MIC ([2]; Citrobacter freundii, C. freundii 1075) | MIC ([2]; Enterobacter cloacae, E. cloacae 1) | MIC ([2]; Enterobacter cloacae, E. cloacae 3) | MIC ([2]; Enterobacter cloacae, E. cloacae 12) | MIC ([2]; Enterobacter cloacae, E. cloacae 13) | MIC ([2]; Enterobacter cloacae, E. cloacae 14) | MIC ([2]; Enterobacter cloacae, E. cloacae 16) | MIC ([2]; Enterobacter cloacae, E. cloacae 20) | MIC ([2]; Enterobacter cloacae, E. cloacae 321) | MIC ([2]; Enterobacter cloacae, E. cloacae 349) | MIC ([2]; Enterobacter cloacae, E. cloacae 358) | MIC ([2]; Enterobacter cloacae, E. cloacae 367) | MIC ([2]; Escherichia coli, ATCC E. Coli 25922) | MIC ([2]; Escherichia coli, E. coli 6) | MIC ([2]; Escherichia coli, E. coli 15) | MIC ([2]; Escherichia coli, E. coli 34) | MIC ([2]; Escherichia coli, E. coli 37) | MIC ([2]; Escherichia coli, E. coli 41) | MIC ([2]; Escherichia coli, E. coli 43) | MIC ([2]; Escherichia coli, E. coli 46) | MIC ([2]; Escherichia coli, E. coli 47) | MIC ([2]; Escherichia coli, E. coli 49) | MIC ([2]; Escherichia coli, E. coli 56) | MIC ([2]; Escherichia coli, E. coli 62) | MIC ([2]; Escherichia coli, E. coli 71) | MIC ([2]; Escherichia coli, E. coli 90) | MIC ([2]; Escherichia coli, E. coli 92) | MIC ([2]; Escherichia coli, E. coli 95) | MIC ([2]; Escherichia coli, E. coli 96) | MIC ([2]; Escherichia coli, E. coli 97) | MIC ([2]; Escherichia coli, E. coli 100) | MIC ([2]; Escherichia coli, E. coli 102) | MIC ([2]; Escherichia coli, E. coli 103) | MIC ([2]; Escherichia coli, E. coli 109) | MIC ([2]; Escherichia coli, E. coli 112) | MIC ([2]; Escherichia coli, E. coli 113) | MIC ([2]; Escherichia coli, E. coli 118) | MIC ([2]; Escherichia coli, E. coli 120) | MIC ([2]; Escherichia coli, E. coli 171) | MIC ([2]; Escherichia coli, E. coli 342) | MIC ([2]; Escherichia coli, E. coli 345) | MIC ([2]; Escherichia coli, E. coli 349) | MIC ([2]; Escherichia coli, E. coli 351) | MIC ([2]; Klebsiella aerogenes, E. aerogenes 235) | MIC ([2]; Klebsiella aerogenes, E. aerogenes 281) | MIC ([2]; Klebsiella aerogenes, E. aerogenes 290) | MIC ([2]; Klebsiella aerogenes, E. aerogenes 1023) | MIC ([2]; Klebsiella aerogenes, E. aerogenes 1031) | MIC ([2]; Klebsiella oxytoca, K. oxytoca 4) | MIC ([2]; Klebsiella oxytoca, K. oxytoca 18) | MIC ([2]; Klebsiella oxytoca, K. oxytoca 479) | MIC ([2]; Klebsiella oxytoca, K. oxytoca 499) | MIC ([2]; Klebsiella pneumoniae, K. pneumoniae 17) | MIC ([2]; Klebsiella pneumoniae, K. pneumoniae 19) | MIC ([2]; Klebsiella pneumoniae, K. pneumoniae 80) | MIC ([2]; Klebsiella pneumoniae, K. pneumoniae 91) | MIC ([2]; Klebsiella pneumoniae, K. pneumoniae 1064) | MIC ([2]; Morganella morganii, M. morganii 42) | MIC ([2]; Morganella morganii, M. morganii 48) | MIC ([2]; Morganella morganii, M. morganii 50) | MIC ([2]; Morganella morganii, M. morganii 101) | MIC ([2]; Morganella morganii, M. morganii 105) | MIC ([2]; Morganella morganii, M. morganii 108) | MIC ([2]; Morganella morganii, M. morganii 453) | MIC ([2]; Morganella morganii, M. morganii 461) | MIC ([2]; Morganella morganii, M. morganii 462) | MIC ([2]; Morganella morganii, M. morganii 923) | MIC ([2]; Morganella morganii, M. morganii 932) | MIC ([2]; Morganella morganii, M. morganii 1006) | MIC ([2]; Proteus mirabilis, P. mirabilis 465) | MIC ([2]; Proteus mirabilis, P. mirabilis 466) | MIC ([2]; Proteus mirabilis, P. mirabilis 469) | MIC ([2]; Proteus mirabilis, P. mirabilis 470) | MIC ([2]; Proteus mirabilis, P. mirabilis 472) | MIC ([2]; Proteus mirabilis, P. mirabilis 473) | MIC ([2]; Proteus mirabilis, P. mirabilis 477) | MIC ([2]; Proteus mirabilis, P. mirabilis 479) | MIC ([2]; Proteus mirabilis, P. mirabilis 489) | MIC ([2]; Proteus mirabilis, P. mirabilis 928) | MIC ([2]; Proteus mirabilis, P. mirabilis 972) | MIC ([2]; Proteus mirabilis, P. mirabilis 983) | MIC ([2]; Proteus mirabilis, P. mirabilis 987) | MIC ([2]; Proteus mirabilis, P. mirabilis 988) | MIC ([2]; Proteus mirabilis, P. mirabilis 990) | MIC ([2]; Proteus mirabilis, P. mirabilis 991) | MIC ([2]; Proteus mirabilis, P. mirabilis 993) | MIC ([2]; Proteus mirabilis, P. mirabilis 995) | MIC ([2]; Proteus mirabilis, P. mirabilis 996) | MIC ([2]; Proteus mirabilis, P. mirabilis 997) | MIC ([2]; Providencia stuartii, P. stuartii 94) | MIC ([2]; Providencia stuartii, P. stuartii 299) | MIC ([2]; Providencia stuartii, P. stuartii 301) | MIC ([2]; Providencia stuartii, P. stuartii 312) | MIC ([2]; Providencia stuartii, P. stuartii 459) | MIC ([2]; S. odorifera 59) | MIC ([2]; Serratia marcescens, S. marcescens 38) | MIC ([2]; Serratia marcescens, S. marcescens 45) | MIC ([2]; Serratia marcescens, S. marcescens 59) | MIC ([2]; Stenotrophomonas maltophilia, S. maltophilia 1203) | MIC ([2]; Stenotrophomonas maltophilia, S. maltophilia 1208)
